Data on five compounds can be found in ChEMBL document CHEMBL1131774, “Synthesis of water-soluble phenytoin prodrugs” (Bioorg Med Chem Lett, 1999).

Common to all, as to format: ADME, organism-based
Common to all, as to details: rat, read-out: Hydrolysis

Data set [1] is described as follows: Compound was tested for percent hydrolysis in whole blood, after a time interval of 15.0 min.
Data set [2] is described as follows: Compound was tested for percent hydrolysis in whole blood after a time interval of 2.0 min.
A short description of data set [3]: Compound was tested for percent hydrolysis in whole blood after a time interval of 7.0 min.
The nature of data set [4]: Compound was tested for percent hydrolysis in whole blood after a time interval of 0.5 min.
Data set [5] can be described thus: Compound was tested for percent hydrolysis in whole blood after a time interval of 180.0 min.
Data set [6] can be described thus: Compound was tested for percent hydrolysis in whole blood after a time interval of 60.0 min.
The nature of data set [7]: Compound was tested for percent hydrolysis in whole blood after a time interval of 5.0 min.

Each structure is given as a SMILES string.

With `CC(OC(=O)CCCC(=O)O)N1C(=O)NC(c2ccccc2)(c2ccccc2)C1=O` (stereo unspecified), the metabolised at 0.25 h in data set [1] was determined as 37.2%. The metabolised at 2 min in data set [2] came to 26.7%. In data set [3], the metabolised at 7 min is 36.9%. Also, the metabolised at 0.5 min in data set [4] was determined as 15%. In addition, the metabolised at 3 h in data set [5] turned out to be 45.1%. Moreover, the metabolised at 1 h in data set [6] is 39.6%.
As for `O=C(CN1CCOCC1)OCN1C(=O)NC(c2ccccc2)(c2ccccc2)C1=O`, the metabolised at 5 min in data set [7] came to 91%. Moreover, the metabolised at 0.25 h in data set [1] was found to be 93.6%. In data set [2], the metabolised at 2 min stood at 80.1%. For the same compound, in data set [4], the metabolised at 0.5 min was 28.7%. For the same compound, the metabolised at 1 h in data set [6] is 99.3%.
Take `O=C(CN1CCCCC1)OCN1C(=O)NC(c2ccccc2)(c2ccccc2)C1=O`: in data set [7], the metabolised at 5 min was 97.5%. The metabolised at 2 min in data set [2] was determined as 96.5%. Besides, in data set [4], the metabolised at 0.5 min stood at 49.2%.
On to `CC(OC(=O)CCC(=O)O)N1C(=O)NC(c2ccccc2)(c2ccccc2)C1=O` (stereo unspecified), for which the metabolised at 0.25 h in data set [1] was 55.9%. Further, the metabolised at 2 min in data set [2] worked out at 42.4%. Further, the metabolised at 7 min in data set [3] worked out at 52.8%. In data set [4], the metabolised at 0.5 min worked out at 25.7%. Moreover, in data set [5], the metabolised at 3 h was 69.2%. Besides, the metabolised at 1 h in data set [6] came out at 59.6%.
On to `O=C1NC(c2ccccc2)(c2ccccc2)C(=O)N1COP(=O)(O)O` [FOSPHENYTOIN SODIUM], for which the metabolised at 0.25 h in data set [1] came to 45.4%. Besides, in data set [2], the metabolised at 2 min was determined as 11.6%. In addition, the metabolised at 7 min in data set [3] worked out at 25%. The metabolised at 0.5 min in data set [4] amounted to 7.95%. Further, in data set [5], the metabolised at 3 h is 95.3%. For the same compound, the metabolised at 1 h in data set [6] amounted to 87.5%.
